pIC50: −log10 of the molar value.

In assay [1] the target is T1, Bombesin receptor subtype-3 (Homo sapiens) (UniProt P32247).
T1 sequence (whole entry): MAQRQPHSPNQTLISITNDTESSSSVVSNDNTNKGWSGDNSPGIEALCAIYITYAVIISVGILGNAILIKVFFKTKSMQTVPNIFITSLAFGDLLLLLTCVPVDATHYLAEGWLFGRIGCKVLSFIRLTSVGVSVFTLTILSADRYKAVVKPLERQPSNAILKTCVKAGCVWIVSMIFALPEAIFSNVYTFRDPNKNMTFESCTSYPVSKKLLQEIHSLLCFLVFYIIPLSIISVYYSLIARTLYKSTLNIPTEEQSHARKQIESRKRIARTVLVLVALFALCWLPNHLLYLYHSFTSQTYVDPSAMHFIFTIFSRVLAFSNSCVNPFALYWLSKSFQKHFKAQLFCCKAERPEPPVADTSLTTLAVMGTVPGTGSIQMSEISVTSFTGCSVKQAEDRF
Description: Inhibition of [125I]Tyr3-BBN binding to NCI-H1299 cell line. The class given is cell-based. The conditions noted are these: concentration not given here.

Assay [2] addresses Gastrin-releasing peptide receptor (Mus musculus) (UniProt P21729). Description: Inhibition of [125I]Tyr3-BBN binding to BNR-11 cell line (Bombesin/gastrin-releasing peptide receptor). Type of assay: cell-based. The conditions noted are these: concentration not given here.
For assay [3], the system named is NCI-H1299. The assay is described as follows: Inhibitory concentration against NCI-H1299 Human Nonsmall cell lung cancer cells after 24 hr exposure to the compound. The class given is functional, cell-based. The conditions noted are these: NCI-H1299, 24 h.
The subject of assay [4] is NCI-H1299. Description: Inhibitory concentration against NCI-H1299 Human Nonsmall cell lung cancer cells after 96h exposure to the compound. Type of assay: functional, cell-based. To be noted: NCI-H1299, 96 h.

Chain of Gastrin-releasing peptide receptor (Mus musculus) (P21729 whole entry): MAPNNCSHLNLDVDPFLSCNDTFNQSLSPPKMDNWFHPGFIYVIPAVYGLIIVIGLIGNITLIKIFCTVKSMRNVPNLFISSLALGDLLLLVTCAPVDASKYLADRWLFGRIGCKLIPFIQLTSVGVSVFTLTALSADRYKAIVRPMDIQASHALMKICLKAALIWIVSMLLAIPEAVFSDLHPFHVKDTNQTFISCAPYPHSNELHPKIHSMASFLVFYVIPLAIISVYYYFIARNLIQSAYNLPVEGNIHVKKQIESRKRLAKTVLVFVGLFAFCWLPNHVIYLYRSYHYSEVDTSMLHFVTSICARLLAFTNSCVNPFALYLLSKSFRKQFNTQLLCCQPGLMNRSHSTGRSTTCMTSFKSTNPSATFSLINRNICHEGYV

With `CC(C)C[C@H](NC(=O)[C@H](Cc1c[nH]cn1)NC(=O)CNC(=O)[C@@H](NC(=O)[C@H](C)NC(=O)[C@H](Cc1c[nH]c2ccccc12)NC(=O)[C@@H](N)CCC(N)=O)C(C)C)C(N)=O`, the inhibition amounted to 3.6% in assay [1] and 14% in assay [2].
Consider `CC(=O)O[C@H]1C(=O)[C@@]2(C)[C@H]([C@H](OC(=O)c3ccccc3)[C@]3(O)C[C@H](OC(=O)[C@H](O)[C@@H](NC(=O)c4ccccc4)c4ccccc4)C(C)=C1C3(C)C)[C@]1(OC(C)=O)CO[C@@H]1C[C@@H]2O` [PACLITAXEL], for which the pIC50 with NCI-H1299 [3] is 7.46; with NCI-H1299 [4], 7.82.

(Values after ChEMBL document CHEMBL1132692, “Paclitaxel derivatives for targeted therapy of cancer: toward the development of smart taxanes” (J Med Chem, 1999).)
